Measurements from the CheMixHub viscosity set.

Experiment: xn = mol fraction of the nth substance listed

CC(=O)Oc1ccccc1C(=O)O + CCC(C)O
viscosity [mPa·s], 101 kPa
Conditions | x1 = 0.0007 | x1 = 0.00094 | x1 = 0.00118 | x1 = 0.00141 | x1 = 0.00165 | x1 = 0.00189 | x1 = 0.00236
293.15 K | 3.623 | 3.624 | 3.626 | 3.627 | 3.628 | 3.63 | 3.632
298.15 K | 3.014 | 3.015 | 3.015 | 3.016 | 3.017 | 3.018 | 3.02
303.15 K | 2.525 | 2.526 | 2.527 | 2.527 | 2.528 | 2.529 | 2.531
308.15 K | 2.12 | 2.121 | 2.122 | 2.123 | 2.123 | 2.124 | 2.125
310.15 K | 1.974 | 1.975 | 1.976 | 1.976 | 1.977 | 1.978 | 1.979
313.15 K | 1.792 | 1.793 | 1.794 | 1.795 | 1.796 | 1.797 | 1.798

COc1ccccc1 + CCC(C)O
viscosity [mPa·s], 101.33 kPa
Conditions | x1 = 0.0999 | x1 = 0.2001 | x1 = 0.3001 | x1 = 0.3998 | x1 = 0.5 | x1 = 0.6001 | x1 = 0.7 | x1 = 0.8002 | x1 = 0.9
303.15 K | 1.759 | 1.366 | 1.172 | 1.068 | 1.001 | 0.969 | 0.951 | 0.934 | 0.918
313.15 K | 1.335 | 1.068 | 0.932 | 0.862 | 0.843 | 0.831 | 0.816 | 0.803 | 0.792
323.15 K | 1.023 | 0.852 | 0.769 | 0.745 | 0.739 | 0.731 | 0.723 | 0.709 | 0.698

C1CCOC1 + CCCCCC
Conditions | viscosity [mPa·s]
293.15 K, 101 kPa, x1 = 0.1171 | 0.3234
293.15 K, 101 kPa, x1 = 0.23 | 0.3356
293.15 K, 101 kPa, x1 = 0.3386 | 0.349
293.15 K, 101 kPa, x1 = 0.4434 | 0.36
293.15 K, 101 kPa, x1 = 0.5444 | 0.3797
293.15 K, 101 kPa, x1 = 0.6418 | 0.4007
293.15 K, 101 kPa, x1 = 0.736 | 0.4207
293.15 K, 101 kPa, x1 = 0.8269 | 0.442
293.15 K, 101 kPa, x1 = 0.9149 | 0.465
298 K, 101 kPa, x2 = 0.0984 | 0.431
298 K, 101 kPa, x2 = 0.1946 | 0.407
298 K, 101 kPa, x2 = 0.2979 | 0.387
298 K, 101 kPa, x2 = 0.3518 | 0.374
298 K, 101 kPa, x2 = 0.4012 | 0.365
298 K, 101 kPa, x2 = 0.4477 | 0.357
298 K, 101 kPa, x2 = 0.4775 | 0.352
298 K, 101 kPa, x2 = 0.5496 | 0.342
298 K, 101 kPa, x2 = 0.6159 | 0.333
298 K, 101 kPa, x2 = 0.6436 | 0.33
298 K, 101 kPa, x2 = 0.7063 | 0.323
298 K, 101 kPa, x2 = 0.7549 | 0.318
298 K, 101 kPa, x2 = 0.7901 | 0.314
298 K, 101 kPa, x2 = 0.9039 | 0.303
298.15 K, 101 kPa, x1 = 0.1171 | 0.3025
298.15 K, 101 kPa, x1 = 0.23 | 0.3142
298.15 K, 101 kPa, x1 = 0.3386 | 0.3258
298.15 K, 101 kPa, x1 = 0.4434 | 0.3381
298.15 K, 101 kPa, x1 = 0.5444 | 0.357
298.15 K, 101 kPa, x1 = 0.6418 | 0.3736
298.15 K, 101 kPa, x1 = 0.736 | 0.3943
298.15 K, 101 kPa, x1 = 0.8269 | 0.415
298.15 K, 101 kPa, x1 = 0.9149 | 0.4365
303.15 K, 101.33 kPa, x1 = 0.0971 | 0.285
303.15 K, 101.33 kPa, x1 = 0.1966 | 0.295
303.15 K, 101.33 kPa, x1 = 0.3001 | 0.307
303.15 K, 101.33 kPa, x1 = 0.4 | 0.32
303.15 K, 101.33 kPa, x1 = 0.5034 | 0.334
303.15 K, 101.33 kPa, x1 = 0.5974 | 0.349
303.15 K, 101.33 kPa, x1 = 0.7066 | 0.369
303.15 K, 101.33 kPa, x1 = 0.7889 | 0.386
303.15 K, 101.33 kPa, x1 = 0.8992 | 0.41

CC(C)=O + CCCCCC
298.15 K, 101 kPa
Conditions | viscosity [mPa·s]
x1 = 0.1416 | 0.303
x1 = 0.2707 | 0.3137
x1 = 0.3888 | 0.3047
x1 = 0.4974 | 0.2983
x1 = 0.5975 | 0.3043
x1 = 0.6901 | 0.3039
x1 = 0.776 | 0.2984
x1 = 0.8559 | 0.3113
x1 = 0.9304 | 0.3144
